Assay results taken from patent US8653110B2, “Active compound combination comprising azadirachtin and a substituted enaminocarbonyl compound” (Bayer CropScience AG, priority 2010, dated 2014).

How the values were obtained:
Format in all cases: in vivo
Spodoptera exigua = Spodoptera exigua caterpillars on carnations, feeding damage (Example 1)
Description: Example 1 describes the effect of the combination according to the invention on caterpillars of the owlet moth (Spodoptera exigua) on carnations (Dianthus caryophyllus). Azadirachtin was employed as NeemAzal® from Trifolio GmbH. The test was carried out according to EPPO guidelines PP 1/152 (2), PP 1/181 (3), PP 1/135 (3) and PP 1/210 (1) with 4 repetitions of in each case 10 plants. At the start of the infection, the plants were treated as follows: • 1. untreated • 2. compound (I-1) as SL 200 (17% strength), 150 g of active compound/ha • 3. azadirachtin 30 g of active compound/ha • 4. compound (I-1) as SL 200+azadirachtin, 150+30 g of active compound/ha • 5. positive control: imidacloprid 100 g of active compound/ha
The spray solution was prepared by mixing commercial formulations and using water to adjust to the concentration mentioned. The application rate was 1000 l/ha. 3 Applications were carried out at intervals of 10-14 days. The feeding damage caused by the caterpillars on the carnation leaves was scored at weekly intervals.

[1] = test system: Trialeurodes vaporariorum; experiment: Whiteflies on tomatoes, further test (Example 6); conditions: (I-1) 50, azadirachtin 15, (I-1)+azadirachtin 50+15, imidacloprid 100 g/ha
Description: This example describes a further test with the formulation according to the invention against whiteflies (Trialeurodes vaporariorum) on tomatoes (Lycopersicon esculentum). The test was carried out under GEP according to EPPO guideline PP 1/36(2) with 4 repetitions of in each case 5 plants. At the start of the infection, the plants were treated as follows: • 1. untreated • 2. compound (I-1) as SL 200 (compound according to formula (I-1), 17% strength), 50 g of active compound/ha • 3. azadirachtin 15 g of active compound/ha, NeemAzal® • 4. azadirachtin 5 g of active compound/ha, NeemAzal® 5. compound (I-1) as SL 200+azadirachtin, 50+15 g of active compound/ha • 6. compound (I-1) as SL 200+azadirachtin, 50+5 g of active compound/ha • 7. positive control imidacloprid 100 g of active compound/ha
The spray solution was prepared by mixing commercial formulations and using water to adjust to the concentration mentioned. The application rate was 1000 l/ha. 2 applications were carried out at intervals of 10 days. The number of adult flies and the number of larvae were scored on days 2 to 32 after the first application. What is shown is the effect of the products, which becomes evident in a reduction of the number of insects or larvae compared to the untreated control. Imidacloprid was also tested, as positive control.

Tetranychus urticae = experiment: Greenhouse red spider mite on roses (Example 7); conditions: (I-1) 50, azadirachtin 30, (I-1)+azadirachtin 50+30, imidacloprid 100 g/ha
Description: Example 7 describes the effect of the combination according to the invention on the greenhouse red spider mite (Tetranychus urticae) on roses. The test was carried out in a greenhouse under GEP according to EPPO guideline PP 1/168(2) with 4 repetitions of in each case 4 plants. At the start of the infection, the plants were treated as follows: • 1. untreated • 2. compound (I-1) as SL 200 (compound according to formula (I-1), 17% strength), 50 g of active compound/ha • 3. azadirachtin 30 g of active compound/ha, NeemAzal® • 4. azadirachtin 5 g of active compound/ha, NeemAzal® • 5. compound (I-1) as SL 200+azadirachtin, 50+30 g of active compound/ha • 6. compound (I-1) as SL 200+azadirachtin, 50+5 g of active compound/ha • 7. positive control imidacloprid 100 g of active compound/ha
The spray solution was prepared by mixing commercial formulations and using water to adjust to the concentration mentioned. The application rate was 1000 l/ha. 2 applications were carried out at intervals of 14 days. The number of spider mites on days 2 to 32 after the first application was scored. What is shown is the effect of the products, which becomes evident in a reduction of the number of spider mites compared to the untreated control.

Spodoptera frugiperda = experiment: Fall armyworm caterpillars on maize, feeding damage (Example 8); conditions: reduction of feeding damage, (I-1) 50, azadirachtin 30, (I-1)+azadirachtin 50+30, imidacloprid 100 g/ha
Phyllotreta nigripes = experiment: Turnip flea beetle on cabbage (Example 10); conditions: (I-1) 150, azadirachtin 30, (I-1)+azadirachtin 150+30, imidacloprid 100 g/ha
Description: Example 10 describes the effect of the combination according to the invention on caterpillars of the turnip flea beetle Phyllotreta nigripes on cabbage. The test was carried out according to EPPO guidelines PP 1/210(1), PP 1/152 (2), PP 1/181 (3) and PP 1/135 with 4 repetitions of in each case 10 plants. The plants were treated as follows: • 1. untreated • 2. compound (I-1) as SL 200 (compound according to formula (I-1), 17% strength), 150 g of active compound/ha • 3. azadirachtin 30 g of active compound/ha, NeemAzal® • 4. compound (I-1) as SL 200+azadirachtin, 150+30 g of active compound/ha • 5. positive control imidacloprid 100 g of active compound/ha
The spray solution was prepared by mixing commercial formulations and using water to adjust to the concentration mentioned. The application rate was 1000 l/ha. 2 applications were carried out at intervals of 14 days. The number of live caterpillars on days 7 to 32 after the first application was scored. What is shown is the effect of the products, which becomes evident in a reduction of the number of caterpillars compared to the untreated control.

O=[N+]([O-])NC1=NCCN1Cc1ccc(Cl)nc1 [imidacloprid]
Day 7 reduction of feeding damage in % (Spodoptera exigua; Day 7, (I-1) 150, azadirachtin 30, (I-1)+azadirachtin 150+30, imidacloprid 100 g of active compound/ha): 0%
Day 25 reduction of feeding damage in % (Spodoptera exigua; Day 25, (I-1) 150, azadirachtin 30, (I-1)+azadirachtin 150+30, imidacloprid 100 g of active compound/ha): 100%
Day 32 reduction of feeding damage in % (Spodoptera exigua; Day 32, (I-1) 150, azadirachtin 30, (I-1)+azadirachtin 150+30, imidacloprid 100 g of active compound/ha): 97%
Day 40 reduction of feeding damage in % (Spodoptera exigua; Day 40, (I-1) 150, azadirachtin 30, (I-1)+azadirachtin 150+30, imidacloprid 100 g of active compound/ha): 100%
Activity against adults [%] ([1]; Day 2): 91%
Activity against larvae [%] ([1]; Day 2): 0%
Activity against adults [%] ([1]; Day 7): 96%
Activity against larvae [%] ([1]; Day 7): 57%
Activity against adults [%] ([1]; Day 14): 98%
Activity against larvae [%] ([1]; Day 14): 70%
Activity against adults [%] ([1]; Day 21): 99%
Activity against larvae [%] ([1]; Day 21): 68%
Activity against adults [%] ([1]; Days 28-32): 91%
Activity against larvae [%] ([1]; Days 28-32): 94%
Activity against Tetranychus urticae [%] (Tetranychus urticae; Day 2): 20%
Activity against Tetranychus urticae [%] (Tetranychus urticae; Day 7): 16%
Activity against Tetranychus urticae [%] (Tetranychus urticae; Day 14): 11%
Activity against Tetranychus urticae [%] (Tetranychus urticae; Day 21): 27%
Activity against Tetranychus urticae [%] (Tetranychus urticae; Days 28-32): 46%
Activity against Spodoptera frugiperda [%] (Spodoptera frugiperda; Day 7): 24%
Activity against Spodoptera frugiperda [%] (Spodoptera frugiperda; Day 14): 57%
Activity against Spodoptera frugiperda [%] (Spodoptera frugiperda; Day 21): 14%
Activity against Spodoptera frugiperda [%] (Spodoptera frugiperda; Days 28-32): 12%
Activity against Spodoptera frugiperda [%] (Spodoptera frugiperda; Days 35-42): 10%
Activity against Phyllotreta nigripes [%] (Phyllotreta nigripes; Day 7): 52%
Activity against Phyllotreta nigripes [%] (Phyllotreta nigripes; Days 14-16): 51%
Activity against Phyllotreta nigripes [%] (Phyllotreta nigripes; Days 21-25): 49%
Activity against Phyllotreta nigripes [%] (Phyllotreta nigripes; Days 28-32): 43%
